According to the supplement of paper PMC10307832:

Columns and labels:
Assay in all cases: relative viability (nuclei count vs DMSO), 5 days (fraction); higher = more cells survive
[1] = compound: COc1cccc2c1C(=O)c1c(O)c3c(c(O)c1C2=O)C[C@@](O)(C(=O)CO)C[C@@H]3O[C@H]1C[C@H](N)[C@H](O)[C@H](C)O1 [Doxorubicin] + COc1cccc2cc(-c3nc([C@H]4CC[C@H](C(=O)O)CC4)n4ncnc(N)c34)[nH]c12 [OSI-027] (partner 0.5 µM)
In short: (§1)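 Lung cancer cell lines in 1536-well plates got either a single drug or a fixed anchor-drug dose together with five library-drug doses (not always all listed) in √10 steps, by pin tool, on the day after seeding. Nuclei were counted after 5 days, and relative viability is the treated-to-vehicle ratio of nuclei counts. Values are medians of duplicate plates.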

[2] = compound: COC1=C(C=C(C=C1)C2=CC3=NC=CN3C(=N2)NC4=C(C=CC=N4)C(=O)N)OC [BAY61-3606] + Cc1cc(Nc2cc(N3CCN(C)CC3)nc(Sc3ccc(NC(=O)C4CC4)cc3)n2)n[nH]1 [Tozasertib] (partner 0.1 µM)
In short: as §1

[3] = compound: COc1cccc2c1C(=O)c1c(O)c3c(c(O)c1C2=O)C[C@@](O)(C(=O)CO)C[C@@H]3O[C@H]1C[C@H](N)[C@H](O)[C@H](C)O1 [Doxorubicin] + Cc1nc(Nc2ncc(C(=O)Nc3c(C)cccc3Cl)s2)cc(N2CCN(CCO)CC2)n1 [Dasatinib] (partner 0.075 µM)
In short: as §1

[4] = compound: COc1cccc2c1C(=O)c1c(O)c3c(c(O)c1C2=O)C[C@@](O)(C(=O)CO)C[C@@H]3O[C@H]1C[C@H](N)[C@H](O)[C@H](C)O1 [Doxorubicin] + Nc1nc2[nH]cc(CCc3ccc(C(=O)N[C@@H](CCC(=O)O)C(=O)O)cc3)c2c(=O)[nH]1 [Pemetrexed] (partner 0.2 µM)
In short: as §1

UMC-11
relative viability ([1]; first compound 0.001 µM): 0.514 | relative viability ([1]; first compound 0.003162 µM): 0.425 | relative viability ([1]; first compound 0.01 µM): 0.482 | relative viability ([1]; first compound 0.03162 µM): 0.436 | relative viability ([1]; first compound 0.1 µM): 0.368 | relative viability ([2]; first compound 0.02 µM): 0.2 | relative viability ([2]; first compound 0.06325 µM): 0.208 | relative viability ([2]; first compound 0.2 µM): 0.207 | relative viability ([2]; first compound 0.6325 µM): 0.201 | relative viability ([2]; first compound 2 µM): 0.192 | relative viability ([3]; first compound 0.001 µM): 0.43 | relative viability ([3]; first compound 0.003162 µM): 0.47 | relative viability ([3]; first compound 0.01 µM): 0.44 | relative viability ([3]; first compound 0.03162 µM): 0.446 | relative viability ([3]; first compound 0.1 µM): 0.282 | relative viability ([4]; first compound 0.001 µM): 0.831 | relative viability ([4]; first compound 0.003162 µM): 0.901 | relative viability ([4]; first compound 0.01 µM): 0.823 | relative viability ([4]; first compound 0.03162 µM): 0.645 | relative viability ([4]; first compound 0.1 µM): 0.636
